This passage reports EC50 results from patent US20230192686A1, “1H-PYRROLO[2,3-B]PYRIDINES AND PREPARATION AND USES THEREOF” (BioSplice Therapeutics, Inc., priority 2021, published 2023).

The assay has as its target recombinant DYRK1A kinase (Homo sapiens, UniProt Q13627). The experiment in a line: DYRK1A kinase assay (Ser/Thr 18 peptide Z-lyte FRET). It is filed as biochemical. The settings on record: DYRK1A kinase activity; 15 μM ATP, 4 μM Ser/Thr peptide 18, one hour at room temperature. The protocol: Representative compounds were screened using the assay procedure for DYRK1A kinase activity as described below.
Each compound was dissolved in DMSO as a 10 mM stock and used to prepare compound source plates. Serial dilution (1:3, 11-point dose-response curves from 10 μM to 0.00016 μM) and compound transfer was performed using the ECHO 550 (Labcyte, Sunnyvale, Calif.) into 1536-well black-walled round bottom plates (Corning).
The DYRK1A kinase assay was run using the Ser/Thr 18 peptide Z-lyte assay kit according to manufacturer's instructions (Life Technologies—a Division of Thermo-Fisher). This is a non-radioactive assay using fluorescence resonance energy transfer (FRET) between coumarin and fluorescein to detect kinase activity which is represented as a ratio of coumarin emission/fluorescein emission.
Briefly, recombinant DYRK1A kinase, ATP and Ser/Thr peptide 18 were prepared in 1× Kinase buffer to final concentrations of 0.25 μg/mL, 15 μM, and 4 μM respectively. The mixture was allowed to incubate with the representative compounds for one hour at room temperature. All reactions were performed in duplicate. Unphosphorylated (“0% Control”) and phosphorylated (“100% control”) forms of Ser/Thr 18 served as control reactions. Additionally, an 11-point dose-response curve of Staurosporine (1 uM top) was run to serve as a positive compound control.
After incubation, Development Reagent A was diluted in Development Buffer then added to the reaction and allowed to further incubate for one hour at room temperature. The plate was read at Ex 400 Em 455 to detect the coumarin signal and Ex 400 Em 520 to measure the signal (EnVision Multilabel Plate Reader, PerkinElmer).
The Emission ratio (Em) was calculated as a ratio of the coumarin (C) emission signal (at 445 nm)/Fluorescein (F) emission signal (at 520 nm). The percent phosphorylation was then calculated using the following formula: [1−((Em ratio×F100%)−C100%)/((C0%−C100%)+(Em ratio×(F100%−F0%)))]. Dose-response curves were generated, and inhibitory concentration (IC50) values were calculated using non-linear regression curve fit in the Dotmatics' Studies Software (Bishops Stortford, UK).

The structures appear in SMILES notation.

One may read the EC50 as the concentration needed to bring the measured effect to its halfway point. Consider `CN1CCN(c2cccc(Nc3ccc4c(-c5ccn6ncc(-c7cnn(C)c7)c6c5)c[nH]c4n3)c2)CC1` [Compound 1930, 3-(3-(1-Methyl-1H-pyrazol-4-yl)pyrazolo[1,5-a]pyridin-5-yl)-N-(3-(4-methylpiperazin-1-yl)phenyl)-1H-pyrrolo[2,3-b]pyridin-6-amine], for which the EC50 was found to be 4 nM.
With `CN1CCC(Nc2cncc(-c3c[nH]c4ncccc34)n2)CC1` [Compound 70, N-(1-Methylpiperidin-4-yl)-6-(1H-pyrrolo[2,3-b]pyridin-3-yl)pyrazin-2-amine], the EC50 amounted to 13 nM.
The same measure for `Cc1nc2c(F)cc(-c3c[nH]c4ncc(C(=O)N5C6CCC5CN(C)C6)cc34)cc2n1C(C)C` [Compound 535, (3-(4-Fluoro-1-isopropyl-2-methyl-1H-benzo[d]imidazol-6-yl)-1H-pyrrolo[2,3-b]pyridin-5-yl)(3-methyl-3,8-diazabicyclo[3.2.1]octan-8-yl)methanone]: 2 nM; for `CN1CCC(N(C)C(=O)c2cnn3ccc(-c4c[nH]c5ncccc45)cc23)CC1` [Compound 46, N-Methyl-N-(1-methylpiperidin-4-yl)-5-(1H-pyrrolo[2,3-b]pyridin-3-yl)pyrazolo[1,5-a]pyridine-3-carboxamide]: 5 nM; for `c1cnc2[nH]cc(-c3ccc4ncnc(N5CCNC6(CCC6)C5)c4c3)c2c1` [Compound 97, 6-(1H-Pyrrolo[2,3-b]pyridin-3-yl)-4-(5,8-diazaspiro[3.5]nonan-8-yl) quinazoline]: 2 nM.
Regarding `O=C1NCCn2cc(-c3c[nH]c4ncccc34)cc21` [Compound 10, 7-(1H-Pyrrolo[2,3-b]pyridin-3-yl)-3,4-dihydropyrrolo[1,2-a]pyrazin-1(2H)-one], the EC50 is 14 nM.
With `c1cnc2[nH]cc(-c3ccc4c(c3)CCCO4)c2c1` [Compound 79, 3-(Chroman-6-yl)-1H-pyrrolo[2,3-b]pyridine] the figure was 24 nM; with `O=C(c1ncnc2ccc(-c3c[nH]c4ncccc34)cc12)N1CCNC2(CC2)C1` [Compound 108, (6-(1H-Pyrrolo[2,3-b]pyridin-3-yl)quinazolin-4-yl)(4,7-diazaspiro [2.5]octan-7-yl)methanone], 52 nM; with `c1cnc2[nH]cc(-c3ccnc4[nH]ccc34)c2c1` [Compound 2, 1H,1′H-3,4′-Bipyrrolo[2,3-b]pyridine], 50 nM.
For `c1cnc2[nH]cc(-c3ccn4ncnc4c3)c2c1` [Compound 30, 7-(1H-Pyrrolo[2,3-b]pyridin-3-yl)-[1,2,4]triazolo[1,5-a]pyridine], the EC50 amounted to 13 nM.
With `c1cnc2[nH]cc(-c3ccn4nccc4n3)c2c1` [Compound 65, 5-(1H-Pyrrolo[2,3-b]pyridin-3-yl)pyrazolo[1,5-a]pyrimidine] the figure was 7 nM; with `CN1CCC(C(=O)Nc2ccc3c(-c4ccnc(N5CCN(C)CC5)c4)c[nH]c3n2)CC1` [Compound 1855, 1-Methyl-N-(3-(2-(4-methylpiperazin-1-yl)pyridin-4-yl)-1H-pyrrolo [2,3-b]pyridin-6-yl)piperidine-4-carboxamide], 30 nM; with `Cc1nc2c(F)cc(-c3c[nH]c4ncc(C(=O)Nc5cnn(C6CCNCC6)c5)cc34)cc2n1C(C)C` [Compound 661, 3-(4-Fluoro-1-isopropyl-2-methyl-1H-benzo[d]imidazol-6-yl)-N-(1-(piperidin-4-yl)-1H-pyrazol-4-yl)-1H-pyrrolo[2,3-b]pyridine-5-carboxamide], 2 nM.
With `CC1(C)COc2ccc(-c3c[nH]c4ncccc34)cc21` [Compound 72, 3-(3,3-Dimethyl-2,3-dihydrobenzofuran-5-yl)-1H-pyrrolo[2,3-b] pyridine] the figure was 91 nM; with `c1cnc2[nH]cc(-c3ccc4nccnc4c3)c2c1` [Compound 90, 6-(1H-Pyrrolo[2,3-b]pyridin-3-yl)quinoxaline], 3 nM; with `CN1CCN(c2ccc(NC(=O)c3cnc4[nH]cc(-c5ccn6ncc(C(=O)N7CCCCC7)c6c5)c4c3)cn2)CC1` [Compound 802, N-(6-(4-Methylpiperazin-1-yl)pyridin-3-yl)-3-(3-(piperidine-1-carbonyl)pyrazolo[1,5-a]pyridin-5-yl)-1H-pyrrolo[2,3-b]pyridine-5-carboxamide], 7 nM.
The same measure for `Cc1nnc2ccc(-c3c[nH]c4ncccc34)cn12` [Compound 32, 3-Methyl-6-(1H-pyrrolo[2,3-b]pyridin-3-yl)-[1,2,4]triazolo[4,3-a] pyridine]: 151 nM; for `Cc1nc2c(F)cc(-c3c[nH]c4ncc(CN5CCN(C)CC5)cc34)cc2n1C(C)C` [Compound 409, 4-Fluoro-1-isopropyl-2-methyl-6-(5-((4-methylpiperazin-1-yl)methyl)-1H-pyrrolo[2,3-b]pyridin-3-yl)-1H-benzo[d]imidazole]: 13 nM.
Turning to `O=C(Nc1ccc2c(-c3ccc4ncccc4c3)c[nH]c2n1)c1ccncc1` [Compound 1908, N-(3-(Quinolin-6-yl)-1H-pyrrolo[2,3-b]pyridin-6-yl)isonicotinamide], the EC50 stood at 1 nM.
Consider `O=C(NC1CCN(Cc2ccccn2)CC1)c1cnn2ccc(-c3c[nH]c4ncccc34)cc12` [Compound 51, N-(1-(Pyridin-2-ylmethyl)piperidin-4-yl)-5-(1H-pyrrolo[2,3-b]pyridin-3-yl)pyrazolo[1,5-a]pyridine-3-carboxamide], for which the EC50 was found to be 1 nM.
As to `Cc1nc2c(F)cc(-c3c[nH]c4ncc(C(=O)N5CCN(C)CC5)cc34)cc2n1C(C)C` [Compound 493, (3-(4-Fluoro-1-isopropyl-2-methyl-1H-benzo[d]imidazol-6-yl)-1H-pyrrolo[2,3-b]pyridin-5-yl)(4-methylpiperazin-1-yl)methanone], the EC50 worked out at 7 nM.
The same measure for `CN1CCC2(CC1)CC(=O)c1ccc(-c3c[nH]c4nc(NC(=O)c5ccncc5)ccc34)cc12` [Compound 1899, N-(3-(1′-methyl-3-oxo-2,3-dihydrospiro[indene-1,4′-piperidin]-6-yl)-1H-pyrrolo[2,3-b]pyridin-6-yl)isonicotinamide]: 14 nM; for `O=C(c1cnn2ccc(-c3c[nH]c4nc(C5CCC5)ccc34)cc12)N1CCCCC1` [Compound 1558, (5-(6-Cyclobutyl-1H-pyrrolo[2,3-b]pyridin-3-yl)pyrazolo[1,5-a]pyridin-3-yl)(piperidin-1-yl)methanone]: 291 nM.
The same measure for `Cn1cc2cc(-c3c[nH]c4ncccc34)ccc2n1` [Compound 3, 2-Methyl-5-(1H-pyrrolo[2,3-b]pyridin-3-yl)-2H-indazole]: 6 nM; for `CN1CCN(c2cc(CNc3ncnc4ccc(-c5c[nH]c6ncccc56)cc34)ccn2)CC1` [Compound 105, N-((2-(4-Methylpiperazin-1-yl)pyridin-4-yl)methyl)-6-(1H-pyrrolo [2,3-b]pyridin-3-yl)quinazolin-4-amine]: 4 nM; for `Cc1nc2c(F)cc(-c3c[nH]c4nc(C5CCC5)ccc34)cc2n1C(C)C` [Compound 1543, 6-(6-Cyclobutyl-1H-pyrrolo[2,3-b]pyridin-3-yl)-4-fluoro-1-isopropyl-2-methyl-1H-benzo[d]imidazole]: 43 nM.
The same measure for `CN1CCC(NC(=O)c2cnc3ccc(-c4c[nH]c5ncccc45)cn23)CC1` [Compound 14, N-(1-Methylpiperidin-4-yl)-6-(1H-pyrrolo[2,3-b]pyridin-3-yl)imidazo[1,2-a]pyridine-3-carboxamide]: 1 nM.
